Entries after “also recorded” stand apart in the source; their conditions may differ.
Columns and labels:
Format in all cases: cell-based, herpes simplex virus 1 (HSV-1)
HSV-1 [1] = assay: HSV-1 cellular and nuclear entry (viral DNA in total and nuclear fractions of HFF cells); conditions: compound 1 35 μM, compound 4 30 μM, 5-hrs pretreatment, HSV-1 2.0 PFU per cell 1.5-hrs
Method: HFF cells were treated with the EZH1/2 catalytic inhibitor compound 1 (35 μM), compound 4 (30 μM), or DMSO (vehicle) for 5-hrs. The HFF cells were then infected with HSV-1 (2.0 PFU per cell) for 1.5-hrs in the presence of the inhibitors or DMSO (vehicle). The levels of HSV viral DNA isolated from total and nuclear cellular fractions are expressed as ratios relative to DMSO (vehicle).

HSV-1 [2] = assay: Spread of HSV infection in HFF cells (UL29 staining); conditions: HSV-1 MOI 0.01 for 8.5-hrs, then treated for 12.5-hrs (30 μM)
Method: HFF cells were mock or infected with HSV-1 (MOI 0.01) for 8.5-hrs to allow one round of the viral replication program. The HFF cells were then treated with EZH1/2 inhibitor (compound 1 or compound 4 at 30 μM), viral DNA polymerase inhibitor (ACV at 100 μM), or JMJD3 inhibitor (ML324 at 50 μM) for an additional 12.5-hrs. Cells were paraformaldehyde fixed, permeabilized, and stained for the viral E gene UL29 and actin. The viral E protein UL29 was used as a marker for the spread of viral infection.
HFF cells were mock or infected with HSV-1 (MOI 0.01) for 8.5-hrs to allow one round of the viral replication program. HFF cells were then treated with EZH1/2 (compound 1, compound 4), viral DNA polymerase (ACV), or JMJD3 (ML324) inhibitors for additional 12.5-hrs. Cells were paraformaldehyde fixed, permeabilized, and stained for the viral E gene UL29 and actin (Phalloidin). The viral E protein UL29 was used as a marker for the spread of viral infection.

HSV-1 [3] = assay: HSV-1 viral IE mRNA levels in infected Vero (IFN-β null, IRF3 deficient) cells; conditions: 5-hrs pretreatment, HSV-1 2.0 PFU per cell
Method: HFF (wild-type) and Vero (IFN-β null, IRF3 deficient) cells were treated with the indicated concentration of EZH1/2 catalytic inhibitor (compound 1 or 4) or DMSO (vehicle) for 5-hrs. HFF and Vero cells were then infected with HSV-1 (2.0 PFU per cell) for 1.5-hrs in the presence of inhibitor or DMSO. The levels of HSV viral IE (ICP0, ICP4, ICP22, and ICP27) and cellular control (SP1 and TBP) mRNAs are expressed relative to cells treated with DMSO (vehicle).

HSV-1 [4] = assay: Mouse trigeminal ganglia explant reactivation model, viral yield titrated on Vero cells; conditions: explant 48-hrs; compound 1 35 μM, compound 3 30 μM, compound 4 30 μM
Method: Trigeminal ganglia from HSV-1 latently infected mice were bisected. Half were explanted in media with control DMSO (vehicle), and the other half were explanted in media with ACV (100 μM), ML324 (50 μM), compound 1 (35 μM), compound 3 (30 μM), or compound 4 (30 μM) for 48-hrs to induce viral reactivation. Viral yields were determined by titrating on Vero cells. Each point represents the titer of one explanted trigeminal ganglia.

HSV-1 [5] = assay: UL29+ single neurons and neuron clusters in explanted trigeminal ganglia; conditions: explant 48-hrs; compound 1 35 μM, compound 4 30 μM, ACV 100 μM, ML324 50 μM
Text: (§1) Trigeminal ganglia were fixed in paraformaldehyde and tissue sections were contained with anti-UL29 and DAPI. The HSV E gene UL29 (DNA single strand binding replication protein) was used a marker for viral reactivation. Tissue sections were scored for UL29+ cell clusters (clusters indicate viral spread from the primary neuron to surrounding cells) and for individual neurons representing the primary reactivation event (single) (FIGS. 18 and 19).
as §1, with “costained” for “contained”, “(FIG. 25).” for “(FIGS. 18 and 19).”

HSV-1 [6] = assay: Removal of inhibitors prior to HSV-1 infection of HFF cells (mRNA levels); conditions: washed, then infected; for HSV IE expression after removal of compound prior to infection: 5-hrs treatment (compound 1 35 μM, 2 15 μM, 3 30 μM, 4 30 μM); for IL6 stimulation after removal of compound prior to infection: 5-hrs treatment
Method: HFF cells were treated with inhibitors targeting the catalytic SET domain (compound 1, 35 μM: EZH2; compound 2, 15 μM: EZH2 and EZH1; compound 4, 30 μM: EZH2), EED-EZH2 and EED-EZH1 (compound 3, 30 μM), or DMSO (control) for 5-hrs. Cells were then washed with phosphate buffered saline (PBS) and replaced with media with no inhibitors for the indicated time in FIGS. 21-24 prior to infection with HSV-1 (2.0 PFU per cell) for 1.5-hrs in the absence of inhibitors.

SMILES | HSV-1 viral entry (total and nuclear) (HSV-1 [1]) | spread of HSV infection to adjacent cells (UL29 marker) (HSV-1 [2]) | antiviral activity (HSV IE mRNA) in Vero cells as compared to HFF (wild-type) cells (HSV-1 [3]) | HSV reactivation from latency (viral yield per explanted trigeminal ganglia) (HSV-1 [4]) | primary reactivation (UL29+ single neurons) (HSV-1 [5]) | secondary spread of HSV (UL29+ neuron clusters) (HSV-1 [5]) | HSV IE expression after removal of compound prior to infection (HSV-1 [6]) | IL6 stimulation after removal of compound prior to infection (HSV-1 [6])
CCCc1cc(C)[nH]c(=O)c1CNC(=O)c1cc(-c2ccnc(N3CCN(C)CC3)c2)cc2c1cnn2C(C)C [compound 1, GSK343] | no impact | block the spread of HSV to adjacent cells; also recorded: block the spread of HSV infection | lack of antiviral activity | block HSV reactivation from latency | reduced | reduced | recovery of HSV IE expression | decrease in IL6 stimulation
Nc1nc2c(ncn2COCCO)c(=O)[nH]1 [ACV, Acyclovir] | – | – | – | – | reduced | – | – | –
CN(C)CCCNC(=O)c1ccc(-c2cc(O)c3ncccc3c2)cc1 [ML324, N-(3-(dimethylamino)propyl)-4-(8-hydroxyquinolin-6-yl)benzamide] | – | – | – | – | reduced | reduced | – | –
CCCc1cc(C)[nH]c(=O)c1CNC(=O)c1cc(-c2ccc(N3CCN(C(C)C)CC3)nc2)cc2c1cnn2C(C)C [compound 2, UNC1999] | – | – | – | – | – | – | recovery of HSV IE expression | decrease in IL6 stimulation
COc1ccc(CCN2CCC(Nc3nc4ccccc4n3Cc3ccc(F)cc3)CC2)cc1 [compound 3, astemizole] | – | – | – | block HSV reactivation from latency | – | – | recovery of HSV IE expression | –

From patent publication US20180071284A1, “PREVENTING OR TREATING VIRAL INFECTION BY INHIBITION OF THE HISTONE METHYLTRANSFERASE EZH1 OR EZH2” (The United States of America, as represented by the …, priority 2015, published 2018)
